For seven compounds, GI50 and TGI results are on record in PubChem BioAssay (NCI).

Among the test systems are BT-549 breast; K-562 leukemia; SR leukemia; MDA-MB-231 breast; HCT-15 colon; EKVX NSCLC; A549 NSCLC; SK-OV-3 ovarian; MCF7 breast; KM12 colon.
What all share (assay): growth of human tumour cells (NCI), 48 h

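Values below derive from 48-hour exposures of cells grown in 96-well plates, with endpoints linearly interpolated between the two concentrations bracketing the appropriate inhibition level. Here, GI50 denotes the concentration required for 50% inhibition of growth. TGI is the concentration that stops growth completely.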 Bounds are passed on as bounds.

Consider `Nc1ncnc2c1c(-c1ccc(Oc3ccccc3)cc1)nn2C[C@@H]1SSC[C@@H]1O`, for which the GI50 in the experiment on BT-549 breast was 3.53 µM; with K-562 leukemia, 0.295 µM; in the experiment with SR leukemia, 0.0385 µM; in the experiment on MDA-MB-231 breast, 1.14 µM; with HCT-15 colon it was 0.57 µM; with EKVX NSCLC, 0.373 µM. Also, the GI50 was 0.479 µM in the experiment with A549 NSCLC, 0.498 µM in the experiment with SK-OV-3 ovarian, 0.129 µM with MCF7 breast and 0.18 µM in the experiment with KM12 colon. Moreover, the TGI with BT-549 breast was found to be 13.4 µM; in the experiment on K-562 leukemia, 3.21 µM; in the experiment on SR leukemia it was 0.27 µM; with MDA-MB-231 breast, 4.13 µM; in the experiment on HCT-15 colon, 5.98 µM; in the experiment on EKVX NSCLC it was 5.84 µM. Moreover, the TGI in the experiment with A549 NSCLC worked out at 2.57 µM; in the experiment with SK-OV-3 ovarian it was 3.71 µM; in the experiment on MCF7 breast, 1.31 µM; in the experiment with KM12 colon, 12.1 µM.

On to `COc1ccc(/C=C/C(=O)C(C)(C)Br)cc1`, for which the TGI in the experiment on BT-549 breast is 7.06 µM; with K-562 leukemia, over 100 µM; in the experiment on SR leukemia, 13.6 µM; with MDA-MB-231 breast it was 63.1 µM; with HCT-15 colon, 7.69 µM; in the experiment with EKVX NSCLC, 31.7 µM. Further, the TGI in the experiment with A549 NSCLC was 63.9 µM; in the experiment with SK-OV-3 ovarian, 63.1 µM; in the experiment with MCF7 breast, 19.1 µM; in the experiment with KM12 colon, 55.1 µM.

As for `O=C(O)C1C2C=CC(O2)C1C(=O)Nc1ncccn1` (stereo not given), the TGI in the experiment on BT-549 breast, with K-562 leukemia, in the experiment with SR leukemia, in the experiment with MDA-MB-231 breast, with HCT-15 colon and with EKVX NSCLC was over 100 µM throughout. The TGI with A549 NSCLC, with SK-OV-3 ovarian, in the experiment on MCF7 breast and in the experiment with KM12 colon was over 100 µM each time.

In the case of `O=C(O)Cn1ccnc1[N+](=O)[O-]`, the TGI with BT-549 breast, with K-562 leukemia, in the experiment with SR leukemia, in the experiment on MDA-MB-231 breast, in the experiment on HCT-15 colon and in the experiment with EKVX NSCLC was over 100 µM each time. Besides, the TGI with A549 NSCLC, with SK-OV-3 ovarian, with MCF7 breast and in the experiment with KM12 colon was over 100 µM in each case.

Regarding `COc1cc2cc(Oc3ccc(NC(=O)c4cccc5c4OCCO5)cc3)c(C)nc2cc1OC`, the GI50 is 1.71 µM in the experiment with BT-549 breast; 4.81 µM in the experiment on K-562 leukemia; 4.12 µM with SR leukemia; 6.06 µM with MDA-MB-231 breast; 7.87 µM in the experiment with HCT-15 colon; 5.32 µM in the experiment on EKVX NSCLC. Besides, the GI50 in the experiment on A549 NSCLC is 7.04 µM; in the experiment with SK-OV-3 ovarian it was 49.8 µM; in the experiment on MCF7 breast, 6.27 µM; in the experiment with KM12 colon, 4.39 µM. For the same compound, the TGI with BT-549 breast is 4.42 µM; in the experiment on K-562 leukemia it was over 100 µM; in the experiment on SR leukemia, over 100 µM; with MDA-MB-231 breast, over 100 µM; in the experiment on HCT-15 colon, over 100 µM; in the experiment with EKVX NSCLC it was over 100 µM. In addition, the TGI with A549 NSCLC, in the experiment with SK-OV-3 ovarian, in the experiment on MCF7 breast and in the experiment on KM12 colon was over 100 µM throughout.

On to `CC(C)(CO)N=Cc1ccccc1[O-].CC(C)(CO)N=Cc1ccccc1[O-].[Co+2]`, for which the GI50 is 14.5 µM in the experiment on BT-549 breast; 47.3 µM in the experiment on K-562 leukemia; 14.4 µM with SR leukemia; over 74.9 µM in the experiment on MDA-MB-231 breast; 69.7 µM with HCT-15 colon; over 84.4 µM in the experiment with EKVX NSCLC. Also, the GI50 was over 100 µM in the experiment with A549 NSCLC, over 100 µM in the experiment with SK-OV-3 ovarian, 27.3 µM in the experiment with MCF7 breast and over 97.8 µM in the experiment on KM12 colon. The TGI in the experiment with BT-549 breast was over 63.4 µM; with K-562 leukemia it was over 100 µM; with SR leukemia, over 90.4 µM; with MDA-MB-231 breast, over 100 µM; in the experiment on HCT-15 colon it was over 100 µM; with EKVX NSCLC, over 100 µM. Moreover, the TGI in the experiment on A549 NSCLC, with SK-OV-3 ovarian, in the experiment on MCF7 breast and in the experiment on KM12 colon was over 100 µM throughout.

As to `O=C(Cc1ccc(/C=C/C(=O)c2ncc[nH]2)cc1)Nc1ccc(C(F)(F)F)cc1`, the GI50 was 2.11 µM in the experiment on BT-549 breast; 1.24 µM in the experiment with K-562 leukemia; 0.843 µM with SR leukemia; 2.79 µM in the experiment on MDA-MB-231 breast; 1.04 µM with HCT-15 colon; 5.57 µM in the experiment with EKVX NSCLC. The GI50 is 6.37 µM with A549 NSCLC, 7.66 µM in the experiment on SK-OV-3 ovarian, 0.851 µM in the experiment on MCF7 breast and 1.11 µM with KM12 colon. Also, the TGI in the experiment on BT-549 breast is 8.28 µM; with K-562 leukemia it was over 33.3 µM; in the experiment with SR leukemia, over 33.3 µM; in the experiment on MDA-MB-231 breast it was 8.55 µM; with HCT-15 colon, 4.79 µM; in the experiment with EKVX NSCLC it was 14.6 µM. The TGI turned out to be 27.1 µM with A549 NSCLC, 26.3 µM in the experiment with SK-OV-3 ovarian, 4.31 µM in the experiment with MCF7 breast and 4.27 µM in the experiment with KM12 colon.
